This data set is described as follows: activity coefficient (dimensionless); of the first substance listed, at infinite dilution; xn = mol fraction of the nth substance listed. The conditions noted are these: 101.33 kPa, Liquid, Chromatography, x1 = 0.

± gives the expanded uncertainty stated by the source.

`C1CCCC1` [cyclopentane] + CCCCCCCCCC[N+](C)(C)CCCCCCCCCC.[O-][Cl+3]([O-])([O-])[O-]: the activity coefficient turned out to be 1.48 ± 0.15 (308 K), 1.16 ± 0.12 (323 K), 1.26 ± 0.13 (338 K) and 1.19 ± 0.12 (353 K).
As to `c1ccccc1` [benzene] + CCCCCCCCCC[N+](C)(C)CCCCCCCCCC.[O-][Cl+3]([O-])([O-])[O-], the activity coefficient by setting is: (323 K) 0.499 ± 0.055; (338 K) 0.59 ± 0.063; (353 K) 0.527 ± 0.057.
The like results for `CCOCC` [diethyl ether] + CCCCCCCCCC[N+](C)(C)CCCCCCCCCC.[O-][Cl+3]([O-])([O-])[O-] were, in that order, 1.03 ± 0.1, 0.848 ± 0.087 and 0.74 ± 0.077.
Regarding `C=CCCCCC` [1-heptene] + CCCCCCCCCC[N+](C)(C)CCCCCCCCCC.F[B-](F)(F)F, the activity coefficient runs as follows: (308 K) 1.79 ± 0.19; (323 K) 1.81 ± 0.19; (338 K) 1.83 ± 0.19; (353 K) 2.23 ± 0.23.

For the origin of these results see the NIST ThermoML archive (doi:10.1016/j.fluid.2018.11.011).
